Experimental data from patent publication US20260071220A1, “CONJUGATE OF NUCLEOTIDE ANALOG-CONTAINING DOUBLE-STRANDED RNAI ANALOG” (BaseCure Therapeutics LLC, priority 2022, published 2026).

Legend:
Settings in all cases: 24 h, positive control
HEK BLUE hTLR7 = assay: Cell activity detection (CellTiter-Glo) in hTLR7 cells; assay type: cell-based, human
Experimental: (§1) 1) The conjugate of the present invention was diluted to a concentration that was 20 times a final concentration, the diluted conjugate was mixed with RNAiMAX-OPTI MEM (RNAiMAX:OPTI MEM=3:47) at a ratio of 1:1 and incubated for 15 min at room temperature.
(§2) 2) 10 μL of incubated conjugate of the present invention was added into a corresponding cell plate, with 10 concentrations in total, a maximum concentration being 200 nM, and double duplicated wells for each concentration.
(§3) 4) 90 μL of cells were seeded into a 96-well plate with the conjugate at the density of 50,000 cells/well.
(§4) 5) The conjugate of the present invention and the cells were co-incubated for 24 h in an incubator under the conditions of 37° C. and 5% CO2.
(§5) 8) Cell activity detection: the operation was carried out according to the method in the Celltiter-Glo specification, and a chemiluminescence signals (RLU) were detected using the multifunctional microplate reader Flexstation III.
(§6) Compound activity: the OD650 values were analyzed using GraphPad Prism software, and a dose effect curve of the compound was fit, and the EC50 value of the compound was calculated. Cell activity detection: the calculation formula of cell activity % was as follows. The cell activity % value was analyzed using GraphPadPrism software, the dose effect curve of the compound was fit, and the CC50 value of the compound on cell was calculated.

HEK BLUE hTLR8 = assay: Cell activity detection (CellTiter-Glo) in hTLR8 cells; assay type: cell-based, human
Experimental: as §1, §2, §3, §4, §5, §6

hTLR3 = target: T1, hTLR3 (Homo sapiens, UniProt O15455); assay: Agonistic activity on hTLR3 cells (HEK BLUE, QUANTI-Blue OD650); assay type: cell-based
T1 construct: host or cells: HEK BLUE hTLR3 (HEK293-derived SEAP reporter line)
T1 sequence (O15455 24-904): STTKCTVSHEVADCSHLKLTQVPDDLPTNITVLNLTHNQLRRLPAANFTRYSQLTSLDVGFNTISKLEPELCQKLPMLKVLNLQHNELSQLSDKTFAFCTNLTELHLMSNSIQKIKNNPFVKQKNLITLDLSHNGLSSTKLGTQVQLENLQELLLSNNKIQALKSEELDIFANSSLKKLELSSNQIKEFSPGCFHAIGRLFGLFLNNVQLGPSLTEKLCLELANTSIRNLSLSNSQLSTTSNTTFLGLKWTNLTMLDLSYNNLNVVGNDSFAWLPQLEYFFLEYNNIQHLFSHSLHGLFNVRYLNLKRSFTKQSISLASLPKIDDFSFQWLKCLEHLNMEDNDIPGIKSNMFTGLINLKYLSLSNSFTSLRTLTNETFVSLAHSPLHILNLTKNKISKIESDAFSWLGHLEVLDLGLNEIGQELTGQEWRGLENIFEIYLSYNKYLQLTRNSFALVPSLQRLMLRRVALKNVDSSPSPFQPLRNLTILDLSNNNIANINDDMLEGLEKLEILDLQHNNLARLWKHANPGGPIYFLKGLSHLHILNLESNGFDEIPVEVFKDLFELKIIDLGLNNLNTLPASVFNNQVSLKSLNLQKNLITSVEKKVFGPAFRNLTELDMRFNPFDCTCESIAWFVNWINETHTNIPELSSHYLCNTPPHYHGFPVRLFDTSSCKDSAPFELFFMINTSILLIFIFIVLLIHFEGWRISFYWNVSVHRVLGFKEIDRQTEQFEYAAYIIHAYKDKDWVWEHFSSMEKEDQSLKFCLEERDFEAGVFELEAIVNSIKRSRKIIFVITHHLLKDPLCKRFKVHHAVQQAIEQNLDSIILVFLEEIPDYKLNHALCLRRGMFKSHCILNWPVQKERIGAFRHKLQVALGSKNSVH
Experimental: as §1, §2
10 μL of 0.5 μM BLOCK-iT™ Alexa Fluor® Red Fluorescent Control was added into 2 transfection positive control wells.
as §3, §4
7) Compound activity detection: 20 μL of cell supernatant was taken from each well and added into an experimental plate containing 180 μL of QUANTI-Blue™ reagent and then incubated for 1 h at 37° C., followed by detecting an absorbance values at 650 nm (OD650) using the multifunctional microplate reader Flexstation III.
as §6

HEK BLUE hTLR3 = assay: Cell activity detection (CellTiter-Glo) in hTLR3 cells; assay type: cell-based, human
Experimental: as §1, §2, §3, §4, §5, §6

Row | Molecule | CC50 (HEK BLUE hTLR7) [µg/mL] | CC50 (HEK BLUE hTLR8) [µg/mL] | EC50 (hTLR3) [µg/mL] | CC50 (HEK BLUE hTLR3) [µg/mL]
1 | CCOCc1nc2c(N)nc3ccccc3c2n1CC(C)(C)O [Conjugate R848, R848, reference compound] | >10 | >10 | – | –
2 | Poly (I:C) HMW [Poly(I:C) HMW, reference compound] | – | – | 0.05943 | >2
